Columns and labels:
human M3 receptor = human M3 receptor (Homo sapiens, UniProt P20309); experiment: Reversibility at the human M3 receptor in vitro; assay type: binding
subjects with COPD [1] = experiment: 14-day once-daily dose-ranging study in subjects with COPD; assay type: in vivo, human
Text: In addition, this study confirmed that umeclidinium bromide has a once-daily profile.

subjects with COPD [2] = experiment: 28-day once-daily dry powder inhaler study in subjects with COPD; assay type: in vivo, human; settings: 125, 250 and 500 mcg once-daily, 28 days
Text: A further study evaluated the efficacy and safety of three doses of umeclidinium (125 mcg, 250 mcg and 500 mcg as umeclidinium bromide) administered once-daily via a dry powder inhaler over a 28 day period in subjects with COPD.

pre-clinical models = experiment: Duration of action in vivo when administered directly to the lungs in pre-clinical models
[3] = tested on: healthy volunteers and COPD patients; experiment: Clinical pharmacology studies, single inhaled doses, plethysmography (sGaw, Raw) and spirometry (FEV1); assay type: in vivo, human
Method: Several clinical pharmacology studies have been conducted using umeclidinium bromide in both healthy volunteers and COPD patients to investigate the safety, tolerability, pharmacokinetics and pharmacodynamics of this compound. The bronchodilatory effects and duration of action of single inhaled doses of this compound as measured by plethysmography (sGaw, Raw) and spirometry (FEV1) were assessed in some of the above noted studies.

muscarinic receptor = experiment: Muscarinic receptor antagonism, studies in animal models and in humans

Chain of human M3 receptor (P20309 whole entry): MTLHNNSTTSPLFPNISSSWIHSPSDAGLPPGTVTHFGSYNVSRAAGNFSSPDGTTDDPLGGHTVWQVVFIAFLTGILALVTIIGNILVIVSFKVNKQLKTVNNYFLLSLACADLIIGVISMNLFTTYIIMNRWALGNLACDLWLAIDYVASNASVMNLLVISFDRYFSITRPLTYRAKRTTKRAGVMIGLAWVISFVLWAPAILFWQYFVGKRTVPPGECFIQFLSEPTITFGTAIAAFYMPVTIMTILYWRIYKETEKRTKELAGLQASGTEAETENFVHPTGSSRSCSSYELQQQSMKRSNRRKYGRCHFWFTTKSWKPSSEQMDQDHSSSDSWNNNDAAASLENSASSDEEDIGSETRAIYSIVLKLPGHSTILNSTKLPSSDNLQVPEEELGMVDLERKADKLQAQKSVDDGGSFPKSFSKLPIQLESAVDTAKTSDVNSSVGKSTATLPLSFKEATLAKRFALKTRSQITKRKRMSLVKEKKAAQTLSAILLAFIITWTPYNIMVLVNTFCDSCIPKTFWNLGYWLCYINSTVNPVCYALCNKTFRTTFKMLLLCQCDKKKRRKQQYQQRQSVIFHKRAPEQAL

reversibility at the human M3 receptor (human M3 receptor): slow reversibility
Compound: OC(c1ccccc1)(c1ccccc1)C12CC[N+](CCOCc3ccccc3)(CC1)CC2.[Br-] [umeclidinium bromide, 4-[hydroxy(diphenyl)methyl]-1-{2-[(phenylmethyl)oxy]ethyl}-1-azoniabicyclo[2.2.2]octane bromide]
improvement in trough FEV1 versus open label tiotropium (18 mcg once-daily) (subjects with COPD [1]; all once-daily doses (62.5-1000 mcg), 14 days): numerically greater improvement
pulmonary function compared to placebo (subjects with COPD [1]; five once-daily doses (62.5, 125, 250, 500, 1000 mcg) over 14 days): statistically significant improvements
bronchodilation (subjects with COPD [2]): maintaining significant bronchodilation over twenty four hours
safety (subjects with COPD [2]): appears to be safe
duration of action in vivo (pre-clinical models): long duration of action
bronchodilatory effect [3]: clinically relevant bronchodilation
duration of action [3]: 24 h
muscarinic receptor antagonist profile (muscarinic receptor): long acting high-affinity pan-active muscarinic receptor antagonist

Reference: patent publication US9795561B2, “Combination of umeclidinium, fluticasone propionate and salmeterol xinafoate for use in the treatment of inflammatory or respiratory tract diseases” (Glaxo Group Limited, priority 2012, dated 2017)
